Experimental findings from patent US20260193188A1, “CRYSTALLINE POLYMORPH FORMS OF A TRPV1 ANTAGONIST AND FORMULATIONS THEREOF” (Bausch + Lomb Ireland Limited, priority 2022, published 2026) are described below.

Values after ≈ are worked out from the molar mass of the structure shown. Some results are limits rather than exact numbers.

As a reminder, the IC50 is the midpoint of a concentration-inhibition curve. One may read the solubility as the concentration that dissolves in the medium under given conditions.

The target of one series is T1, human TRPV1 (Homo sapiens, UniProt Q8NER1).
T1 construct: expressed in transfected cells; host or cells: CHO (Chinese Hamster Ovary) cells, geneticin-selected
T1 sequence (Q8NER1 whole entry): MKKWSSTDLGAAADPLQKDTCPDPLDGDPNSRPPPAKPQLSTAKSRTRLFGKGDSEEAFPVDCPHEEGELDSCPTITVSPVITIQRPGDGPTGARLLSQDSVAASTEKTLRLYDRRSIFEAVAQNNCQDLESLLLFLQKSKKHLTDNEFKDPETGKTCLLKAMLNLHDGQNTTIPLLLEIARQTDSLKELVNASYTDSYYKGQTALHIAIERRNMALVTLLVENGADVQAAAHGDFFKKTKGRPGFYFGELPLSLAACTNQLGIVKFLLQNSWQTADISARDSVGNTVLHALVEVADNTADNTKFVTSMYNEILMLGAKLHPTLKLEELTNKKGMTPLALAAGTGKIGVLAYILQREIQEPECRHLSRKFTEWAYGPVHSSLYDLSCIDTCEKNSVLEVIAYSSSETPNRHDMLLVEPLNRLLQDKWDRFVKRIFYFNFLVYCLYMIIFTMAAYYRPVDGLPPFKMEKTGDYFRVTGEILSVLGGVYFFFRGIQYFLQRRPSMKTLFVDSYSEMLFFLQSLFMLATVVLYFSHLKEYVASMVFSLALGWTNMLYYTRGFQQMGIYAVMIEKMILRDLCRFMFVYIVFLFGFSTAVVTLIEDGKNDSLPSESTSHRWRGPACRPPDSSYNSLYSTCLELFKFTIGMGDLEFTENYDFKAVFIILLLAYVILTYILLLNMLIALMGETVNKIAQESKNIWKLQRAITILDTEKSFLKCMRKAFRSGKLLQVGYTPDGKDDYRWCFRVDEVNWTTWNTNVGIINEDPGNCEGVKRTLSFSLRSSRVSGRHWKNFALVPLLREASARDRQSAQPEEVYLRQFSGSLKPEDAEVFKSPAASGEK
The series can be described thus: FLIPR calcium assay to detect calcium influx in CHO-huTrpV1 cells (antagonism of NADA response). The class given is cell-based. The conditions noted are these: stimulated with 2.5 μM NADA (EC80), FLIPR calcium 6, read-out: IC50, antagonist effect against human TRPV1. The method, then: Chinese Hamster Ovary (CHO) cells transfected to express human TrpV1 receptor (which are herein referred to as CHO-huTrpV1 cells), were grown in F-12 Ham's Nutrient Mixture media (HyClone SH30026.01) supplemented with 10% Fetal Bovine Serum (Invitrogen #26140-079), 1% Antibiotic/antimycotic (Invitrogen #15240-062) and 500 μg/mL geneticin (ThermoFisher scientific #1031035). Cells were grown in T-75 flasks at 37° C. incubater with 5% CO2. The cells were passaged twice a week at a ratio of 1:10 to 1:20 to maintain steady growth. For experimentation, cells were harvarsted at approximately 80% confluency and plated onto 384 well black cell culture plates (cat #781091, Greinier Bio-One Inc.) at 15,000 cells per well in 20 μl media and grown overnight.
The loading dye was prepared following instruction of Calcium 6 assay kit ([…], #R8190): 10 ml buffer from bottle B was added to 1 vial of bottle A (adapted to room temperature from −20° C.) and mixed well, then 2.5 mM of fresh prepared probenecid was added and mixed well. 20 μl/well of loading dye was added on top of the cells, and incubated at 37° C. for 1 hour 30 min.
Assay buffer preparation: 1×HBSS, 2 mM HEPES, 0.1% BSA plus 2.5 mM freshly prepared probenecid (Invitrogen, #P36400). 25 μl/well assay buffer in 384 well clear plate (cat #782281, Greiner Bio-one) was dispensed with buffer distributor (Multidrop ComB1 from Thermo Scientific). The compounds were in 384 Echo plate (cat #LPL0200, Labcyte) and the starting concentration of compound was 10 mM, then 1 to 3 serial dilution in 100% DMSO, 8 ul/well). 125 nl compounds was transferred to the 384 well plate containing 25 μl/well buffer with Echo® 555 Liquid Handler (Labcyte), such that the compound concentration was 5 fold of final concentration. The plate was shook slowly at 40 rpm/min for 10 min to mix. […]
After compounds were added to the cell plate with loading dye, within 10-15 minutes, cell plate and plate containing NADA was placed into the FLIPR (Fluorescent Imaging Plate Reader) instrument (Tetra System, Molecular device). […]

Series [1] can be described thus: Hydrate formation on equilibration in aqueous fluid. The conditions noted are these: equilibrated at 4° C. in water, methanol/water (33:67, 42:58), after 2 weeks and 4 weeks. It counts as physicochemical.
The next series in a line: Solubility in solvents. It counts as physicochemical. The conditions noted are these: organic solvent or mixture. The method, then: Compound I is poorly soluble (between 1 and 25 mg/ml) in acetonitrile, dicholormethane, methyl-tert-butyl ether, nitromethane. In toluene and heptane, compound I is sparingly soluble (<1 mg/ml).
Series [2] can be described thus: Solid form stability (humidity exposure, compression, grinding, granulation). It counts as physicochemical.
The nature of the next series: Hygroscopicity by DVS. The class given is physicochemical.

In the case of `OCC(O)c1cc(F)c(CN[C@H]2C[C@H](Oc3ccc(F)c(C(F)(F)F)c3)C2)c2ccncc12` (mixture of isomers) [Example 1 (mixture of isomers), 1-(6-fluoro-5-((((1r,3r)-3-(4-fluoro-3-(trifluoromethyl)phenoxy)cyclobutyl)amino)methyl)isoquinolin-8-yl)ethane-1,2-diol], the IC50 at human TRPV1 came to 10.4 nM.

For `OC[C@@H](O)c1cc(F)c(CN[C@H]2C[C@H](Oc3ccc(F)c(C(F)(F)F)c3)C2)c2ccncc12` (single isomer, unassigned), at human TRPV1, the IC50 was 0.62 nM. Further, the Hydrate formation result in series [1] is listed as “not observed to form a hydrate”. For the same compound, the solubility in the series “Solubility in solvents” (organic solvents and alcohol/water mixtures, acetone, 1,4-dioxane, ethanol, ethyl acetate, isopropyl acetate, methanol, 2-methyl-2-butanol, tetrahydrofuran, 1-propanol/water (98.5:1.5), 2-propanol/water (96:4), methanol/water (78:22)) is above 25 mg/mL; in the series “Solubility in solvents” (organic solvents, acetonitrile, dicholormethane, methyl-tert-butyl ether, nitromethane) it was 1 to 25 mg/mL (≈ 2.13 to 53.4 mM); in the series “Solubility in solvents” (organic solvents, toluene and heptane) it was below 1 mg/mL.

Turning to `OC[C@H](O)c1cc(F)c(CN[C@H]2C[C@H](Oc3ccc(F)c(C(F)(F)F)c3)C2)c2ccncc12` [(R)-1-(6-fluoro-5-((((1r,3R)-3-(4-fluoro-3-(trifluoromethyl)phenoxy)cyclobutyl)amino)methyl)isoquinolin-8-yl)ethane-1,2-diol], on human TRPV1, the IC50 turned out to be 6.3 nM.

On to `OC[C@@H](O)c1cc(F)c(CN[C@H]2C[C@H](Oc3ccc(F)c(C(F)(F)F)c3)C2)c2ccncc12` [Compound I Form A, (S)-1-(6-fluoro-5-((((1r,3S)-3-(4-fluoro-3-(trifluoromethyl)phenoxy)cyclobutyl)amino)methyl)isoquinolin-8-yl)ethane-1,2-diol], for which the “Change after humidity exposure” value in series [2] (92% RH for 24 h) was “did not result in change”. Also, the “Form change after compression” value in series [2] (compression, only minor peak broadening) is given as “no form change”. For the same compound, in series [2] (dry grinding and wet granulation with water and ethanol (XRPD, FIG. 4)), the “Form change under grinding and granulation” value is recorded as “did not show form change”. Moreover, in “Hygroscopicity by DVS” (DVS), the “Hygroscopicity by DVS” value is recorded as “slightly hygroscopic”. Further, the “Solid state change after DVS” value in the series “Hygroscopicity by DVS” (DVS up to 95% RH) is given as “no change in solid state”. Also, in “Hygroscopicity by DVS” (DVS, at 95% RH), the Water vapor absorbed result was “approximately 0.4%”.
